This is an account of results in publication PMC9618804, “CXCR1 and its downstream NF-κB inflammation signaling pathway as a key target of Guanxinning injection for myocardial ischemia/reperfusion injury” (Frontiers in Immunology, 2022).

One test concerns the target T1, hCXCR1 (Homo sapiens, UniProt P25024).
T1 construct: gene CXCR1; native full-length receptor in freeze-thaw lysate supernatant of human AC-16 cardiomyocytes; detected by Western blot
T1 sequence (P25024 1-350): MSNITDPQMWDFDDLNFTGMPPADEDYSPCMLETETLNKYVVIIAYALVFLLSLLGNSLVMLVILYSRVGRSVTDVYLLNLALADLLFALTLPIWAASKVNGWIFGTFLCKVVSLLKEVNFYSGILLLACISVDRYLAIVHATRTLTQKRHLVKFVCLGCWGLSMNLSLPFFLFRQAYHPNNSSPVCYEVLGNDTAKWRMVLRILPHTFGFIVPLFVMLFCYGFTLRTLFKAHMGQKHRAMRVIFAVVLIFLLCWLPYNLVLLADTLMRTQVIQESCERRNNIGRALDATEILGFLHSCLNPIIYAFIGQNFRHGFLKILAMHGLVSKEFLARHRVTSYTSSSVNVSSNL
The test can be described thus: CETSA in cell lysate, Western blot. Type of test: biochemical. The note with it: AC-16 lysate; 20 uM DSS, 30 min at room temperature, 3 min at 37-73 C.

For the next test, the target named is T2, mCXCR1 (Mus musculus, UniProt Q810W6).
T2 construct: gene Cxcr1; native full-length receptor in freeze-thaw lysate supernatant of mouse HL-1 cardiomyocytes; detected by Western blot (anti-CXCR1 bs-1009R)
T2 sequence (Q810W6 1-351): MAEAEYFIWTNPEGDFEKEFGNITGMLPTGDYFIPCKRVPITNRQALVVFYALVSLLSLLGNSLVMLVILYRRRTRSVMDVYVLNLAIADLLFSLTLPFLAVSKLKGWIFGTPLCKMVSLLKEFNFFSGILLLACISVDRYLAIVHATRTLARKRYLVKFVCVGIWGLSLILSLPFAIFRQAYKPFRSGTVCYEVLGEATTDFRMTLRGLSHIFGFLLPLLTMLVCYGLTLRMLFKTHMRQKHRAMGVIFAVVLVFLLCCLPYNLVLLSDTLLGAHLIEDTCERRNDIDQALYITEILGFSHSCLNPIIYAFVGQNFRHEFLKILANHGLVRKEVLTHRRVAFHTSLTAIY
The test can be described thus: CETSA and isothermal dose-response (ITDRF-CETSA) in cell lysate, Western blot. Format: biochemical. As to conditions: HL-1 lysate; 20 uM DSS, 30 min at room temperature, 3 min at 37-73 C; ITDRF 0-20 uM at 61 C.

For the compound `O=C(O)[C@H](O)Cc1ccc(O)c(O)c1` [DSS, Danshensu], the “thermal stabilization (CETSA)” value on hCXCR1 was “DSS also binds to hCXCR1 to increase its thermal stability”; on mCXCR1, “this thermal stabilization between Danshensu and mCXCR1 was dose dependent from ITDRFCETSA”.
